Each structure is given as a SMILES string. pIC50: −log10 of the molar value.

Experimental findings from patent US12410160B2 (Gilead Sciences, Inc., priority 2021, dated 2025) are described below.

One assay deals with human KHK-C (Homo sapiens (Human), UniProt P50053). Description: KHK Biochemical Assay (IC50), ADP-Glo, KHK-C. Particulars: average of at least two separate assays. The method, boiled down:
(§1)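 ADP-Glo luminescence measured ADP made over a 4 h room-temperature reaction of ATP plus fructose, started after 30 min compound–enzyme pre-incubation. Buffer: 50 mM Hepes pH 7.4, 140 mM KCl, 5 mM MgCl2, 0.01% Triton-X. Enzyme was His-tagged, BL21 (DE3)-expressed, Ni-NTA-purified; compounds in 1:3 DMSO dilution series.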
In general terms: ADP-Glo turns the ADP formed in a reaction into a luminescent signal.

A further assay deals with human KHK-A (Homo sapiens (Human), UniProt P50053). Description: KHK Biochemical Assay (IC50), ADP-Glo, KHK-A. The conditions noted are these: average of at least two separate assays. A digest of the protocol:
as §1

Sequence of human KHK-C (P50053 whole entry): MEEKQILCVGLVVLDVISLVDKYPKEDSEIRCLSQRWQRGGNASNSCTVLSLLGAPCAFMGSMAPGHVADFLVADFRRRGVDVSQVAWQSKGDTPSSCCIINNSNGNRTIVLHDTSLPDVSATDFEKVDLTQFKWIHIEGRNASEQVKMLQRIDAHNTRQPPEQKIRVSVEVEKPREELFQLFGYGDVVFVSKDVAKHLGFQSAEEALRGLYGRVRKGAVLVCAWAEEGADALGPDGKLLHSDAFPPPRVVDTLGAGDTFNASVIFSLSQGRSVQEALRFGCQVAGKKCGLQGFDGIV
Sequence of human KHK-A (P50053 other isoform, or with tags, fused parts or gaps): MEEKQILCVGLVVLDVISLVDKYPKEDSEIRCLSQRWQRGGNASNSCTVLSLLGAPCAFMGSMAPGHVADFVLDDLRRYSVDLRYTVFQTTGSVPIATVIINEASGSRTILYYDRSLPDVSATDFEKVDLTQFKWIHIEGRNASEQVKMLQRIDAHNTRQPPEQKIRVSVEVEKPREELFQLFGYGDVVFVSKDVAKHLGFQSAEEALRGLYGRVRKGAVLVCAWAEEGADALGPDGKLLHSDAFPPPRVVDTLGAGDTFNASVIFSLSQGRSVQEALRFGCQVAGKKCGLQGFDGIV

For `C[C@H]1[C@H](O)CN1c1nc(-c2ccc3c(c2)OCCC32COC(=O)N2)c2c(n1)C(F)(F)CC2` (stereo partly drawn) [Example 553, 7-(7,7-difluoro-2-((2S,3R)-3-hydroxy-2-methylazetidin-1-yl)-6,7-dihydro-5H-cyclopenta[d]pyrimidin-4-yl)spiro[chromane-4,4′-oxazolidin]-2′-one], the negative-log IC50 (pIC50) – broadly, −log10 of the IC50, conventionally taken in molar units – was 8.80 at human KHK-C and 7.82 against human KHK-A.
On to `C[C@H]1[C@H](O)CN1c1nc(-c2ccc3c(c2)COCC32COC(=O)N2)c2c(n1)C(F)(F)CC2` (stereo partly drawn) [Example 554, 7-(7,7-difluoro-2-((2S,3R)-3-hydroxy-2-methylazetidin-1-yl)-6,7-dihydro-5H-cyclopenta[d]pyrimidin-4-yl)spiro[isochromane-4,4′-oxazolidin]-2′-one], for which the pIC50 at human KHK-C is 8.55; against human KHK-A it was 7.53.
The corresponding values for `C[C@H]1[C@H](O)CN1c1nc(-c2ccc3c(c2)CC2OC(=O)NC32)c2c(n1)C(F)(F)CC2` (stereo partly drawn) [Example 557, 6-(7,7-difluoro-2-((2S,3R)-3-hydroxy-2-methylazetidin-1-yl)-6,7-dihydro-5H-cyclopenta[d]pyrimidin-4-yl)-3,3a,8,8a-tetrahydro-2H-indeno[1,2-cl]oxazol-2-one] are 8.07 and 7.97.
The corresponding values for `CC1OCC2(COc3cc(-c4nc(N5C[C@@H](O)[C@@H]5C)nc5c4CCC5(F)F)ccc32)NC1=O` (stereo partly drawn) [Example 558, 6-(7,7-difluoro-2-((2S,3R)-3-hydroxy-2-methylazetidin-1-yl)-6,7-dihydro-5H-cyclopenta[d]pyrimidin-4-yl)-6′-methyl-2H-spiro[benzofuran-3,3′-morpholin]-5′-one] are 9.70 and 8.09.
The corresponding values for `COC[C@H]1CCN1c1nc(-c2ccc(C3(N)COC3)cc2)c2c(n1)C(F)(F)CC2` [Example 569, (R)-3-(4-(7,7-difluoro-2-(2-(methoxymethyl)azetidin-1-yl)-6,7-dihydro-5H-cyclopenta[d]pyrimidin-4-yl)phenyl)oxetan-3-amine] are 7.82 and 7.37.
On to `C[C@H]1CCCN1c1nc(-c2ccc(C3(N)COC3)cc2)c2c(n1)C(F)(F)CC2` [Example 570, (S)-3-(4-(7,7-difluoro-2-(2-methylpyrrolidin-1-yl)-6,7-dihydro-5H-cyclopenta[d]pyrimidin-4-yl)phenyl)oxetan-3-amine], for which the pIC50 was 7.96 against human KHK-C and 7.60 on human KHK-A.
The corresponding values for `NC1(c2ccc(-c3nc(N4CCC5CC54)nc4c3CCC4(F)F)cc2)COC1` (stereo not drawn) [Example 571, 3-(4-(2-(2-azabicyclo[3.1.0]hexan-2-yl)-7,7-difluoro-6,7-dihydro-5H-cyclopenta[d]pyrimidin-4-yl)phenyl)oxetan-3-amine] are 7.30 and 7.36.
The corresponding values for `NC1(c2ccc(-c3nc(N4CCC4C4CCC4)nc4c3CCC4(F)F)cc2)COC1` (stereo not drawn) [Example 572, 3-(4-(2-(2-cyclobutylazetidin-1-yl)-7,7-difluoro-6,7-dihydro-5H-cyclopenta[d]pyrimidin-4-yl)phenyl)oxetan-3-amine] are 7.25 and less than 7.00.
On to `C[C@H]1[C@H](O)CN1c1nc(-c2cc3c(s2)CCC3NS(C)(=O)=O)c2c(n1)C(F)(F)CC2` (stereo partly drawn) [Example 574], for which the pIC50 against human KHK-C was 8.03; against human KHK-A, 7.95.
The corresponding values for `C[C@@H]1N(c2nc(-c3ccc4c(c3)OC[C@@H]4NS(C)(=O)=O)c3c(n2)C(F)(F)CC3)C[C@@]1(C)O` [Example 575, N—((R)-6-(7,7-difluoro-2-((2S,3R)-3-hydroxy-2,3-dimethylazetidin-1-yl)-6,7-dihydro-5H-cyclopenta[d]pyrimidin-4-yl)-2,3-dihydrobenzofuran-3-yl)methanesulfonamide] are 8.23 and 7.28.
The corresponding values for `C[C@@H]1N(c2nc(-c3ccc4c(c3)CCC43COC(=O)N3)c3c(n2)C(F)(F)CC3)C[C@@]1(C)O` (stereo partly drawn) [Example 576, 5-(7,7-difluoro-2-((2S,3R)-3-hydroxy-2,3-dimethylazetidin-1-yl)-6,7-dihydro-5H-cyclopenta[d]pyrimidin-4-yl)-2,3-dihydrospiro[indene-1,4′-oxazolidin]-2′-one] are 8.17 and less than 7.00.
The corresponding values for `CS(=O)(=O)N[C@H]1COc2cc(-c3nc(N4CC[C@@H]4C(F)(F)F)nc4c3CCC4(F)F)ccc21` [Example 577, N—((R)-6-(7,7-difluoro-2-((R)-2-(trifluoromethyl)azetidin-1-yl)-6,7-dihydro-5H-cyclopenta[d]pyrimidin-4-yl)-2,3-dihydrobenzofuran-3-yl)methanesulfonamide] are 9.22 and 8.68.
As to `C[C@H]1[C@H](O)CN1c1nc(-c2ccc3c(c2)COC[C@H]3NS(C)(=O)=O)c2c(n1)C(F)(F)CC2` [Example 578, N—((S)-7-(7,7-difluoro-2-((2S,3R)-3-hydroxy-2-methylazetidin-1-yl)-6,7-dihydro-5H-cyclopenta[d]pyrimidin-4-yl)isochroman-4-yl)methanesulfonamide], the negative-log IC50 (pIC50) at human KHK-C is 8.21; on human KHK-A, 7.65.
Consider `C[C@H]1[C@H](O)CN1c1nc(-c2ccc3c(c2)COC[C@@H]3NS(=O)(=O)C2CC2)c2c(n1)C(F)(F)CC2` [Example 579, N—((R)-7-(7,7-difluoro-2-((2S,3R)-3-hydroxy-2-methylazetidin-1-yl)-6,7-dihydro-5H-cyclopenta[d]pyrimidin-4-yl)isochroman-4-yl)cyclopropanesulfonamide], for which the pIC50 against human KHK-C was 8.57; against human KHK-A, 7.60.
The corresponding values for `CS(=O)(=O)N[C@H]1COCc2cc(-c3nc(N4CC[C@@H]4C(F)(F)F)nc4c3CCC4(F)F)ccc21` [Example 581, N—((R)-7-(7,7-difluoro-2-((R)-2-(trifluoromethyl)azetidin-1-yl)-6,7-dihydro-5H-cyclopenta[d]pyrimidin-4-yl)isochroman-4-yl)methanesulfonamide] are 9.10 and 8.51.
The corresponding values for `C[C@H]1[C@H](F)CN1c1nc(-c2ccc3c(c2)COC[C@@H]3NS(C)(=O)=O)c2c(n1)C(F)(F)CC2` [Example 582, N—((R)-7-(7,7-difluoro-2-((2S,3R)-3-fluoro-2-methylazetidin-1-yl)-6,7-dihydro-5H-cyclopenta[d]pyrimidin-4-yl)isochroman-4-yl)methanesulfonamide] are 9.10 and 8.15.
The corresponding values for `C[C@H]1[C@@H](F)CN1c1nc(-c2ccc3c(c2)COC[C@@H]3NS(C)(=O)=O)c2c(n1)C(F)(F)CC2` [Example 583, N—((R)-7-(7,7-difluoro-2-((28,38)-3-fluoro-2-methylazetidin-1-yl)-6,7-dihydro-5H-cyclopenta[d]pyrimidin-4-yl)isochroman-4-yl)methanesulfonamide] are 8.89 and 8.06.
With `C[C@@H]1N(c2nc(-c3ccc4c(c3)COC[C@@H]4NS(C)(=O)=O)c3c(n2)C(F)(F)CC3)CC1(F)F` [Example 584, N—((R)-7-(2-((S)-3,3-difluoro-2-methylazetidin-1-yl)-7,7-difluoro-6,7-dihydro-5H-cyclopenta[d]pyrimidin-4-yl)isochroman-4-yl)methanesulfonamide], the values for the pIC50 at human KHK-C and against human KHK-A were 8.59 and 7.70, respectively.
